Columns and labels:
[1] = Intravenous bolus pharmacokinetics; type: in vivo, Rat; settings: rat, plasma, Intravenous bolus, 0.5 mg/kg nominal dose; for AUC: iv, 0.5 mg/kg, read-out: Rat IV AUC; for clearance: read-out: Rat IV CL
From the text: Following intravenous administration of a single bolus dose, Compound 1 had low systemic clearance and a long half-life in all species tested. […] The volume of distribution was greater than the total body water, indicating distribution of Compound 1 to tissues.

[2] = Oral pharmacokinetics / bioavailability; type: in vivo, Rat; settings: rat, in vivo, Oral gavage, 3 mg/kg nominal dose, vehicle 0.2%MC/1%SLS; for AUC: read-out: Rat PO AUC; for Cmax: read-out: Rat PO Cmax
From the text: The bioavailability in monkey (greater than 100%) may be explained by the tenfold difference between the IV and oral doses. Compound 1 was rapidly absorbed in all species, with maximum systemic concentration observed within approximately one to three hours of dosing.

CYP1A2 = CYP1A2 Induction in Human Hepatocytes; type: in vitro ADME; settings: 50 μM Omeprazole
Description: CYP activity was determined by monitoring metabolite formation of specific CYP probe substrates (phenacetin for CYP1A2 and testosterone for CYP3A4) using LC-MS/MS. CYP messenger ribonucleic acid (mRNA) was analyzed by RT-PCR to confirm CYP induction potential.

[3] = system: collagen-induced arthritis (CIA); experiment: therapeutic mouse collagen-induced arthritis (CIA) model; type: in vivo; set-up: Histopathology Summed Score, Knees / Therapeutic Paw Score AUC / Histopathology Summed Score, Six Joints / Histopathology Summed Score, Paws: scale not given here; settings: Fostamatinib 30 mg/kg BID
Description: Compound 1 was tested in the therapeutic mouse collagen-induced arthritis (CIA) model at 2.5 mg/kg BID (5 mg/kg/day), 5 mg/kg BID (10 mg/kg/day) or 10 mg/kg BID (20 mg/kg/day). Fostamatinib, a Syk small molecule inhibitor used as a reference standard, was dosed orally at 30 mg/kg BID (60 mg/kg/day). Compounds were dosed for 10 days in a 12/12-hour BID dosing regimen until the end of the study. Compound 1 was formulated in 0.2% MC, 1% SLS. Dosing volume was 10 mL/kg. Terminal plasma samples were collected at 2, 4 and 12 hours post last dose. All four paws and both knees were collected and processed for histopathology.

Cc1cc(-c2cncc(OCC(F)F)c2)nc2c1C(=O)N(c1cnn(CC(F)F)c1)C2(C)C [C, reference compound] gave an AUC [1] of 590 ng·h/mL, a clearance [1] of 11 mL/min/kg and an AUC [2] of 3000 ng·h/mL. The Cmax [2] was 200 ng/mL.

With Cc1cc(-c2cncc(OCC(F)(F)F)c2)nc2c1C(=O)N(c1cnn(CC(F)F)c1)C2(C)C [D, reference compound] the AUC [1] was 1200 ng·h/mL, the clearance [1] was 7 mL/min/kg and the AUC [2] was 9000 ng·h/mL. For the same compound, the Cmax [2] was 500 ng/mL.

For COc1ccc2[nH]c([S+]([O-])Cc3ncc(C)c(OC)c3C)nc2c1 (stereo not drawn) [Omeprazole, reference compound], the “CYP1A2 mRNA message” value (CYP1A2; lot 8123) was 118.0 fold change, the “Phenacetin O-Dealkylation” value (CYP1A2; lot 8123) was 25.7 fold change and the “CYP1A2 mRNA message” value (CYP1A2; lot LMP) was 71.5 fold change. For the same compound, the “Phenacetin O-Dealkylation” value (CYP1A2; lot LMP) was 36.3 fold change, the “CYP1A2 mRNA message” value (CYP1A2; lot YOW) was 83.6 fold change and the “Phenacetin O-Dealkylation” value (CYP1A2; lot YOW) was 17.9 fold change.

In the case of COc1cc(Nc2ncc(F)c(Nc3ccc4c(n3)N(COP(=O)(O)O)C(=O)C(C)(C)O4)n2)cc(OC)c1OC [Fostamatinib, reference compound], the “clinical arthritis scores, therapeutic paws (FIG. 2), significantly reduced” value [3] is reported as “not”, the “reduction of arthritis scores AUC, prophylactic paws only” value [3] is reported as 32% and the “reduction of clinical arthritis scores AUC vs vehicle, all paws” value [3] is reported as 25%. For the same compound, the “All Paw Score AUC” value ([3]; 10 days) was “*23.61”, the “Histopathology Summed Score, Knees” value ([3]; 10 days) was 8.90 and the “Histopathology Summed Score, Paws” value ([3]; 10 days) was 10.25. The “Histopathology Summed Score, Six Joints” value ([3]; 10 days) was 9.80, the “Prophylactic Paw Score AUC” value ([3]; 10 days) was “*48.30” and the “Therapeutic Paw Score AUC” value ([3]; 10 days) was 46.15. For the same compound, the “Arthritis scores measured daily, all paws (FIG. 1)” value ([3]; *d2-11, vs vehicle) was “significantly reduced toward normal” and the “clinical arthritis scores, prophylactic paws (FIG. 3)” value ([3]; *d5-9) was “significantly reduced”.

Work on CCOc1cncc(-c2cc(C)c3c(n2)C(C)(C)N(c2cnn(CC(F)F)c2)C3=O)c1 [B, reference compound] yielded an AUC [1] of 330 ng·h/mL, a clearance [1] of 22 mL/min/kg and an AUC [2] of 600 ng·h/mL. For the same compound, the Cmax [2] was 120 ng/mL.

With COc1cncc(-c2cc(C)c3c(n2)C(C)(C)N(c2cnn(CC(F)F)c2)C3=O)c1 [Compound A, reference compound] the AUC [1] was 220 ng·h/mL, the clearance [1] was 22 mL/min/kg and the AUC [2] was 300 ng·h/mL. The Cmax [2] was 60 ng/mL.
